Assay results published in patent EP4559911A1, “NOVEL HETEROCYCLIC COMPOUND AND PHARMACEUTICAL COMPOSITION FOR INHIBITING AUTOTAXIN COMPRISING THE SAME” (Nextgen Bioscience Co., Ltd., priority 2022, dated 2024).

Biological target: human Autotaxin protein (Homo sapiens, UniProt Q13822)
Test: Evaluation of the inhibitory activity against human Autotaxin protein (18:1 LysoPC substrate, choline assay kit, absorbance at 570 nm)
Format: biochemical
Conditions: compound at 500nM; 2 hours at 37 °C; % inhibition = (1 - absorbance test group / absorbance control group) X 100
Procedure: Solutions of each compound synthesized (80 uM, 100% dimethyl sulfoxide) were sequentially diluted 5-fold with dimethyl sulfoxide to prepare 6 concentrations. Each concentration of the compound was diluted 2-fold with 1x test buffer (50 mM Tris-Cl (pH 8.0), 5 mM KCl, 1 mM CaCl2, 1 mM MgCl2, 140 mM NaCl, deionized water, 1 mg/mL BSA), and 1 uL (1.25% dimethyl sulfoxide) of this diluted mixture was dispensed into each well of a 96-well clear round-bottom plate. 9 uL of 1x test buffer was added, and 20 uL of 240 nM human autotaxin protein (buffer: 50 mM Tris-HCl, pH 8.0, with 150 mM sodium chloride and 20% glycerol) was added. 10 uL of sonicated 360 uM 18:1 LysoPC (diluted with 1x assay buffer) was added. The reaction was performed for 2 hours in a shaking incubator at 37 °C, and a secondary reaction mixture (choline assay kit, KA1662) (65 uL of 1x assay buffer: 1 uL of choline oxidase: 1 uL of dye probe) was prepared. 60 uL of the secondary reaction mixture was added to the plate where the reaction was performed, and incubated for 30 minutes in a shaker. The absorbance value was measured at a wavelength of 570 nm using a SpectraMax iD3 microplate reader. The percentage inhibition activity value (% inhibition) was calculated by the formula: (1 - absorbance value test group / absorbance value control group) X 100.

| inhibition at 0.5 µM [%] | Compound |
| --- | --- |
| 98 | c1ccc2c(c1)CC(Nc1ncc(-c3nnc(N4CCC(c5c[nH]nn5)C4)o3)cn1)C2 (stereo not drawn) [Example 1, 5-(5-(3-(1H-1,2,3-triazol-4-yl)pyrrolidin-1-yl)-1,3,4-oxadiazol-2-yl)-N-(2,3-dihydro-1H-inden-2-yl)pyrimidin-2-amine] |
| 3 | CC(C)(C)C(=O)OCn1cc(C2CCN(c3nnc(-c4cnc(NC5Cc6cc(F)c(F)cc6C5)nc4)o3)C2)nn1 (stereo not drawn) [Example 2, (4-(1-(5-(2-((5,6-difluoro-2,3-dihydro-1H-inden-2-yl)amino)pyrimidin-5-yl)-1,3,4-oxadiazol-2-yl)pyrrolidin-3-yl)-1H-1,2,3-triazol-1-yl)methyl pivalate] |
| 100 | Fc1cc2c(cc1F)CC(Nc1ncc(-c3nnc(N4CCC(c5c[nH]nn5)C4)o3)cn1)C2 (stereo not drawn) [Example 3, 5-(5-(3-(1H-1,2,3-triazol-4-yl)pyrrolidin-1-yl)-1,3,4-oxadiazol-2-yl)-N-(5,6-difluoro-2,3-dihydro-1H-inden-2-yl)pyrimidin-2-amine] |
| 1 | CC(C)(C)C(=O)OCn1cc(C2CCN(c3nnc(-c4cnc(NC5Cc6cccnc6C5)nc4)o3)C2)nn1 (stereo not drawn) [Example 4, (4-(1-(5-(2-((6,7-dihydro-5H-cyclopenta[b]pyridin-6-yl)amino)pyrimidin-5-yl)-1,3,4-oxadiazol-2-yl)pyrrolidin-3-yl)-1H-1,2,3-triazol-1-yl)methyl pivalate] |
| 7.6 | CC(C)(C)C(=O)OCn1cc(C2CCN(c3nnc(-c4cnc(NCc5ccc6c(c5)OCO6)nc4)o3)C2)nn1 (stereo not drawn) [Example 5, (4-(1-(5-(2-((benzo[d][1,3]dioxol-5-ylmethyl)amino)pyrimidin-5-yl)-1,3,4-oxadiazol-2-yl)pyrrolidin-3-yl)-1H-1,2,3-triazol-1-yl)methyl pivalate] |
| 30.4 | c1cc2c(cc1CNc1ncc(-c3nnc(N4CCC(c5c[nH]nn5)C4)o3)cn1)OCO2 (stereo not drawn) [Example 6, 5-(5-(3-(1H-1,2,3-triazol-4-yl)pyrrolidin-1-yl)-1,3,4-oxadiazol-2-yl)-N-(benzo[d][1,3]dioxol-5-ylmethyl)pyrimidin-2-amine] |
| 17 | c1cnc2c(n1)CC(Nc1ncc(-c3nnc(N4CCC(c5c[nH]nn5)C4)o3)cn1)C2 (stereo not drawn) [Example 7, N-(5-(5-(3-(1H-1,2,3-triazol-4-yl)pyrrolidin-1-yl)-1,3,4-oxadiazol-2-yl)pyrimidin-2-yl)-6,7-dihydro-5H-cyclopenta[b]pyrazin-6-amine] |
| 49.5 | c1cnc2c(c1)CC(Nc1ncc(-c3nnc(N4CCC(c5c[nH]nn5)C4)o3)cn1)C2 (stereo not drawn) [Example 8, N-(5-(5-(3-(1H-1,2,3-triazol-4-yl)pyrrolidin-1-yl)-1,3,4-oxadiazol-2-yl)pyrimidin-2-yl)-6,7-dihydro-5H-cyclopenta[b]pyridin-6-amine] |
| 94.2 | O=C(/C=C/c1cnc(NC2Cc3cc(F)c(F)cc3C2)nc1)N1CCC(c2c[nH]nn2)C1 (stereo not drawn) [Example 9, (E)-1-(3-(1H-1,2,3-triazol-4-yl)pyrrolidin-1-yl)-3-(2-((5,6-difluoro-2,3-dihydro-1H-inden-2-yl)amino)pyrimidin-5-yl)prop-2-en-1-one] |
| 18.6 | O=C(CCc1cnc(NC2Cc3cc(F)c(F)cc3C2)nc1)N1CCC(c2c[nH]nn2)C1 (stereo not drawn) [Example 10, 1-(3-(1H-1,2,3-triazol-4-yl)pyrrolidin-1-yl)-3-(2-((5,6-difluoro-2,3-dihydro-1H-inden-2-yl)amino)pyrimidin-5-yl)propan-1-one] |
| 41.6 | Clc1cc(Cl)cc(CCNc2ncc(-c3nnc(N4CCC(c5c[nH]nn5)C4)o3)cn2)c1 (stereo not drawn) [Example 11, 5-(5-(3-(1H-1,2,3-triazol-4-yl)pyrrolidin-1-yl)-1,3,4-oxadiazol-2-yl)-N-(3,5-dichlorophenethyl)pyrimidin-2-amine] |
| 4.1 | COc1ccc2c(c1)CC(Nc1ncc(-c3nnc(N4CCC(c5cn(COC(=O)C(C)(C)C)nn5)C4)o3)cn1)C2 (stereo not drawn) [Example 12, (4-(1-(5-(2-((5-methoxy-2,3-dihydro-1H-inden-2-yl)amino)pyrimidin-5-yl)-1,3,4-oxadiazol-2-yl)pyrrolidin-3-yl)-1H-1,2,3-triazol-1-yl)methyl pivalate] |
| 96.8 | COc1ccc2c(c1)CC(Nc1ncc(-c3nnc(N4CCC(c5c[nH]nn5)C4)o3)cn1)C2 (stereo not drawn) [Example 13, 5-(5-(3-(1H-1,2,3-triazol-4-yl)pyrrolidin-1-yl)-1,3,4-oxadiazol-2-yl)-N-(5-methoxy-2,3-dihydro-1H-inden-2-yl)pyrimidin-2-amine] |
| 23.3 | Fc1cc2c(cc1F)CC(Nc1cnc(-c3nnc(N4CCC(c5c[nH]nn5)C4)o3)cn1)C2 (stereo not drawn) [Example 14, 5-(5-(3-(1H-1,2,3-triazol-4-yl)pyrrolidin-1-yl)-1,3,4-oxadiazol-2-yl)-N-(5,6-difluoro-2,3-dihydro-1H-inden-2-yl)pyrazin-2-amine] |
| 9.5 | COC(=O)C1CCN(c2nnc(-c3cnc(NC4Cc5cc(F)c(F)cc5C4)nc3)o2)C1 (stereo not drawn) [Example 15, methyl 1-(5-(2-((5,6-difluoro-2,3-dihydro-1H-inden-2-yl)amino)pyrimidin-5-yl)-1,3,4-oxadiazol-2-yl)pyrrolidine-3-carboxylate] |
| 88.1 | Cc1nc(NC2Cc3cc(F)c(F)cc3C2)ncc1-c1nnc(N2CCC(c3c[nH]nn3)C2)o1 (stereo not drawn) [Example 16, 5-(5-(3-(1H-1,2,3-triazol-4-yl)pyrrolidin-1-yl)-1,3,4-oxadiazol-2-yl)-N-(5,6-difluoro-2,3-dihydro-1H-inden-2-yl)-4-methylpyrimidin-2-amine] |
| 39.5 | Fc1cc2c(cc1F)CC(Nc1ncc(C3CC(N4CCC(c5c[nH]nn5)C4)=NO3)cn1)C2 (stereo not drawn) [Example 17, 5-(3-(3-(1H-1,2,3-triazol-4-yl)pyrrolidin-1-yl)-4,5-dihydroisoxazol-5-yl)-N-(5,6-difluoro-2,3-dihydro-1H-inden-2-yl)pyrimidin-2-amine] |
| 95.3 | Fc1cc2c(cc1F)CC(Nc1ncc(-c3cc(N4CCC(c5c[nH]nn5)C4)no3)cn1)C2 (stereo not drawn) [Example 18, 5-(3-(3-(1H-1,2,3-triazol-4-yl)pyrrolidin-1-yl)isoxazol-5-yl)-N-(5,6-difluoro-2,3-dihydro-1H-inden-2-yl)pyrimidin-2-amine] |
| 99.7 | Brc1ccc2c(c1)CC(Nc1ncc(-c3nnc(N4CCC(c5c[nH]nn5)C4)o3)cn1)C2 (stereo not drawn) [Example 19, 5-(5-(3-(1H-1,2,3-triazol-4-yl)pyrrolidin-1-yl)-1,3,4-oxadiazol-2-yl)-N-(5-bromo-2,3-dihydro-1H-inden-2-yl)pyrimidin-2-amine] |
| 92.4 | O=C(/C=C/c1cnc(NC2Cc3ccccc3C2)nc1)N1CCC(c2c[nH]nn2)C1 (stereo not drawn) [Example 20, (E)-1-(3-(1H-1,2,3-triazol-4-yl)pyrrolidin-1-yl)-3-(2-((2,3-dihydro-1H-inden-2-yl)amino)pyrimidin-5-yl)prop-2-en-1-one] |
| 72.5 | Fc1cc(F)cc(CNc2ncc(-c3nnc(N4CCC(c5c[nH]nn5)C4)o3)cn2)c1 (stereo not drawn) [Example 21, 5-(5-(3-(1H-1,2,3-triazol-4-yl)pyrrolidin-1-yl)-1,3,4-oxadiazol-2-yl)-N-(3,5-difluorobenzyl)pyrimidin-2-amine] |
| 3.6 | O=C(O)C1CCN(c2nnc(-c3cnc(NC4Cc5cc(F)c(F)cc5C4)nc3)o2)C1 (stereo not drawn) [Example 22, 1-(5-(2-((5,6-difluoro-2,3-dihydro-1H-inden-2-yl)amino)pyrimidin-5-yl)-1,3,4-oxadiazol-2-yl)pyrrolidine-3-carboxylic acid] |
| 91.6 | O=c1[nH]nc(C2CCN(c3nnc(-c4cnc(NC5Cc6cc(F)c(F)cc6C5)nc4)o3)C2)o1 (stereo not drawn) [Example 23, 5-(1-(5-(2-((5,6-difluoro-2,3-dihydro-1H-inden-2-yl)amino)pyrimidin-5-yl)-1,3,4-oxadiazol-2-yl)pyrrolidin-3-yl)-1,3,4-oxadiazol-2(3H)-one] |
| 1 | COC(=O)CC1CCN(c2nnc(-c3cnc(NC4Cc5cc(F)c(F)cc5C4)nc3)o2)C1 (stereo not drawn) [Example 24, methyl 2-(1-(5-(2-((5,6-difluoro-2,3-dihydro-1H-inden-2-yl)amino)pyrimidin-5-yl)-1,3,4-oxadiazol-2-yl)pyrrolidin-3-yl)acetate] |
| 1.8 | O=C(O)CC1CCN(c2nnc(-c3cnc(NC4Cc5cc(F)c(F)cc5C4)nc3)o2)C1 (stereo not drawn) [Example 25, 2-(1-(5-(2-((5,6-difluoro-2,3-dihydro-1H-inden-2-yl)amino)pyrimidin-5-yl)-1,3,4-oxadiazol-2-yl)pyrrolidin-3-yl)acetic acid] |
| 1 | OC1CCN(c2nnc(-c3cnc(NC4Cc5cc(F)c(F)cc5C4)nc3)o2)C1 (stereo not drawn) [Example 26, 1-(5-(2-((5,6-difluoro-2,3-dihydro-1H-inden-2-yl)amino)pyrimidin-5-yl)-1,3,4-oxadiazol-2-yl)pyrrolidin-3-ol] |
| 12.1 | CS(=O)(=O)OC1CCN(c2nnc(-c3cnc(NC4Cc5cc(F)c(F)cc5C4)nc3)o2)C1 (stereo not drawn) [Example 27, 1-(5-(2-((5,6-difluoro-2,3-dihydro-1H-inden-2-yl)amino)pyrimidin-5-yl)-1,3,4-oxadiazol-2-yl)pyrrolidin-3-yl methanesulfonate] |
